What was measured:
beagle bitches = assay: Medical trial of oestrus suppression in beagle bitches (oestrus signs, mating behaviour, vaginal cytology, side effects); assay type: in vivo
Protocol: (§1) A medical trial was conducted at University of Kuopio with six (6) beagle bitches the average weight of which was 10 kg and the age ranged from 1 year and 1 month to 3 years and 11 months. The dogs were given finrozole at a dose of 3 mg/dog/day from the first day of oestrus signs for 21 days. The development of oestrus signs were followed daily and serum samples collected twice a week. The sexual behaviour of a fertile male and the bitches was recorded. The male was allowed to mount and mate the bitches.

[1] = system: Estradiol-17-β and progesterone; assay: Hormonal analyses of serum samples (estradiol assay/DPC, Coat-A-Count Progesterone/DPC) in the trial; assay type: in vivo; details: six beagle bitches, 3 mg/dog/day for 21 days
Protocol: as §1
Hormonal analyses were carried out at Swedish University of Agricultural Sciences in the Department of Clinical Chemistry Estradiol-17-β (the modified estradiol assay/DPC) and progesterone (Coat-A-Count Progesterone /DPC) were analysed.

[2] = six beagle bitches, 3 mg/dog/day for 21 days

N#Cc1ccc(C(C(O)Cc2ccc(F)cc2)n2cncn2)cc1 (single isomer, unassigned) [finrozole, 1-[1-(4-cyanophenyl)-3-(4-fluorophenyl)-2-hydroxypropyl]-1,2,4-triazole, diasteroisomer a + d]
bitches mated (oestrus continued) (beagle bitches; of the four bitches in which oestrus continued, fertile male allowed to mount and mate, 3 mg/dog/day for 21 days): Three of them were mated | bitches conceived (beagle bitches; of the three mated bitches, 3 mg/dog/day for 21 days): two conceived | oestrus signs according to vaginal cytology (beagle bitches; [2]): no difference could be detected | side effects during the treatment (beagle bitches; [2]): No side effects were seen | Oestrus signs (beagle bitches; six beagle bitches, 3 mg/dog/day from the first day of oestrus signs for 21 days): disappeared in two bitches of six | time after starting the treatment during which serum estrogen levels decreased [1]: 4 to 13 days | Progesterone levels ([1]; serum): increased in five bitches of six | serum estrogen levels ([1]; serum samples twice a week): decreased in all bitches
